Experimental data as given in patent EP0679649B1, “2,3-Dihydrobenzofuran Derivatives” (Asahi Kasei Kogyo Kabushiki Kaisha, priority 1993, dated 1994).

Key:
mice = assay: Toxicity test (intraperitoneal administration to mice); assay type: in vivo; details: intraperitoneally administered to mice, 100 mg/kg
serotonin 1A receptor = biological target: T1, serotonin 1A receptor (Rattus norvegicus, UniProt P19327); assay: Affinity for serotonin 1A receptor (inhibition of 3H-8-OH-DPAT binding to rat hippocampal membrane fraction); details: radioligand 3H-8-OH-DPAT, compounds tested as hydrochloride salt, read-out: 5-HT1A Ki
T1 construct: The resultant precipitate was used as a rat hippocampal membrane fraction in the following procedures; from tissue; host or cells: brain (hippocampal) membrane fraction of male SD rat
T1 sequence (P19327 1-422): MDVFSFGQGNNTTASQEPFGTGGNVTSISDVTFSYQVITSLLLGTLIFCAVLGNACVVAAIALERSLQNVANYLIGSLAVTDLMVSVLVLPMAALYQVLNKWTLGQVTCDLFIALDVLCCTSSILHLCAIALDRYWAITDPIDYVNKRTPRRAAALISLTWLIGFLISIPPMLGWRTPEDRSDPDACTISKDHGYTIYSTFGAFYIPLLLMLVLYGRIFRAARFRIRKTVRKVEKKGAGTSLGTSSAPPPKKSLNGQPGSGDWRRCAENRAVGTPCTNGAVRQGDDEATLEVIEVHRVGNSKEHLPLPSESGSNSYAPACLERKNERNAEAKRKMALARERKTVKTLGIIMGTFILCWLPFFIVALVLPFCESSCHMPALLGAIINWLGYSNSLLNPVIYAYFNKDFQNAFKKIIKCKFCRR

male Wistar strain rats = assay: Anti-depression activity (forced swimming test using rats); assay type: in vivo, rat; details: for Time spent in immobile state: 30 minutes before test, observed for 6 minutes, 6 rats, physiological saline 200; for time spent in the immobile state (result in words): hydrochloride, 30 mg/kg and 60 mg/kg p.o.
Text: When a rat is put in a water tank, the rat struggles for its life to get out of the water (that is, the rat starts a "forced swimming"). If the rat finds that it is impossible for him to get out, the rat stops swimming and assumes an immobile state. It has been known that the administration of an antidepressant can cause a violent swimming motion in the rat for getting out of the water, with a result that the time spent in the immobile state is shortened. The shortening of the time in the immobile state of the rat in the forced swimming test by the administration of the antidepressant is well correlated to the clinical anti-depression effect. Accordingly, in developing antidepressants, the forced swimming test using a rat is the most reliable screening method. In the present test, male Wistar strain rats were used. Compounds obtained in Examples 1, 17 and 18 of the present invention (each in the form of a hydrochloride thereof) were, individually, orally administered to a rat. 30 minutes after the administration, the rat was put in a water tank and then, observed for 6 minutes. The time of the rat spent in the immobile state was measured.

adrenaline α1 receptor = assay: Affinity for adrenaline α1 receptor (inhibition of 3H-Prazosin binding to rat cerebral cortex membrane fraction); details: for Ki: rat cerebral cortex membrane fraction, radioligand 3H-Prazosin, compounds tested as hydrochloride salt
Procedure: A male SD strain rat (7-week old; Charles River) was decapitated, and brain was taken out therefrom quickly. Cerebral cortex of the rat was separated and extracted at […] under ice cooling. The extracted cerebral cortex was frozen at -80 °C for 24 hours or longer. This frozen system was gradually thawed under ice cooling and then, 50 mM Tris-HCl buffer (pH 7.4) was added to the brain under ice cooling to obtain a suspension. The resultant suspension was homogenized, and then subjected to centrifugation at 48000 g for 15 minutes, to thereby obtain a precipitate. The precipitate thus obtained was washed twice and resuspended in the same Tris-HCl buffer as used above. […] The total volume amount of the reaction mixture was 1 ml. The resultant reaction mixture was subjected to suction filtration using a Whatman GF/C filter, and the filter was washed three times in 50 mM Tris-HCl buffer (pH 7.4, 4 ml), transferred to a vial and then, the radioactivity of Prazosin absorbed on the filter was determined using a liquid scintillation counter. […] Further, substantially the same procedure as mentioned above was repeated, except that, instead of Prazosin, a test compound was used in a predetermined concentration. […] The binding inhibition ratios were plotted, taking the logarithmic value of the concentration of the test compound as the abscissa value, and the binding inhibition ratio as the ordinate value. Then, a curve was drawn by non-linear least square method.

[1] = Dose 30 mg/kg p.o. (hydrochloride), 30 mg/kg

Compound | Ki (serotonin 1A receptor) | Ki (adrenaline α1 receptor) | other results
O=C(NCCCCNCC1Cc2ccccc2O1)c1ccccc1 (stereo not shown) [Example 1, 2-{N-(4-benzoylaminobutyl)}aminomethyl-2,3-dihydrobenzo[b]furan] | 2.9 nM | 350 nM | mortality / toxicity (mice): none of the mice died; Time spent in immobile state (male Wistar strain rats; [1]): 117 s; time spent in the immobile state (result in words) (male Wistar strain rats): remarkably shortened the time spent in the immobile state
O=C(NCCCCNCC1Cc2ccccc2O1)c1cccc(F)c1 (stereo not shown) [Example 10, 2,3-dihydro-2-[N-{4-(3-fluorobenzoylamino)butyl}]aminomethylbenzo[b]furan] | 3 nM | 420 nM | 
^3H-Prazosin [reference compound] |  |  | Kd (adrenaline α1 receptor; value used in the Ki calculation, read-out: Kd of the radioactive ligand for the adrenaline α1 receptor): 0.133 nM
O=C(NCCCCNCC1Cc2ccccc2O1)c1ccccc1F (stereo not shown) [Example 9, 2,3-dihydro-2-[N-{4-(2-fluorobenzoylamino)butyl}]aminomethylbenzo[b]furan] | 8.2 nM | 330 nM | 
COc1cccc(C(=O)NCCCCNCC2Cc3ccccc3O2)c1 (stereo not shown) [Example 7, 2,3-dihydro-2-[N-{4-(3-methoxybenzoylamino)butyl}]aminomethylbenzo[b]furan] | 4.3 nM | 340 nM | 
Cc1cccc(C(=O)NCCCCNCC2Cc3ccccc3O2)c1 (stereo not shown) [Example 4, 2,3-dihydro-2-[N-{4-(3-methylbenzoylamino)butyl}]aminomethylbenzo[b]furan] | 1.2 nM | 270 nM | 
Cc1ccc(C(=O)NCCCCNCC2Cc3ccccc3O2)cc1 (stereo not shown) [Example 5, 2,3-dihydro-2-[N-{4-(4-methylbenzoylamino)-butyl}]aminomethylbenzo[b]furan] | 12 nM | 290 nM | 
O=C(NCCCCNCC1Cc2ccccc2O1)c1ccccc1 (single isomer, unassigned; (-)) [Example 18, (-)-2-{N-(4-benzoylaminobutyl)}aminomethyl-2,3-dihydrobenzo[b]furan] | 1.3 nM | 270 nM | Time spent in immobile state (male Wistar strain rats; [1]): 142 s; time spent in the immobile state (result in words) (male Wistar strain rats): remarkably shortened the time spent in the immobile state
O=C(NCCCCNCC1Cc2ccccc2O1)c1ccccc1 (single isomer, unassigned; (+)) [Example 17, (+)-2-{N-(4-benzoylamino)butyl}aminomethyl-2,3-dihydrobenzo[b]furan] |  |  | Time spent in immobile state (male Wistar strain rats; Dose 60 mg/kg p.o. (hydrochloride)): 142 s; time spent in the immobile state (result in words) (male Wistar strain rats): remarkably shortened the time spent in the immobile state
O=S(=O)(NCCCCNCC1Cc2ccccc2O1)c1ccccc1 (stereo not shown) [Example 2, 2-{N-(4-benzenesulfonamidobutyl)}aminomethyl-2,3-dihydrobenzo[b]furan] | 11 nM | 270 nM | 

Further lines, with some results ahead:

Ki (serotonin 1A receptor) | Ki (adrenaline α1 receptor) | Compound | other results
3.1 nM | 710 nM | CCN(CCCCNC(=O)c1ccccc1)CC1Cc2ccccc2O1 (stereo not shown) [Example 25, 2-{N-(4-benzoylaminobutyl)-N-ethyl}aminomethyl-2,3-dihydrobenzo[b]furan] | 
2.6 nM | 300 nM | O=C(NCCCCNCC1Cc2ccccc2O1)c1ccc(F)cc1 (stereo not shown) [Example 11, 2,3-dihydro-2-[N-{4-(4-fluorobenzoylamino)butyl}]aminomethylbenzo[b]furan] | 
2 nM |  | O=C(NCCNCC1Cc2ccccc2O1)c1ccc(F)cc1 (stereo not shown) [Example 21, 2-[N-{2-(4-fluorobenzoyl)aminoethyl}]aminomethyl-2,3-dihydrobenzo[b]furan] | 
5.4 nM | 260 nM | O=C(NCCCCNCC1Cc2ccccc2O1)c1ccccc1O (stereo not shown) [Example 29, 2,3-dihydro-2-[N-{4-(2-hydroxybenzoylamino)butyl}]aminomethylbenzo[b]furan] | 
12 nM |  | O=C(NCCCNCC1Cc2ccccc2O1)c1ccc(F)cc1 (stereo not shown) [Example 23, 2-[N-{3-(4-fluorobenzoylamino)propyl}]aminomethyl-2,3-dihydrobenzo[b]furan] | 
3.7 nM |  | O=C(NCCNCC1Cc2ccccc2O1)c1ccccc1 (stereo not shown) [Example 19, 2-{N-(2-benzoylaminoethyl)}aminomethyl-2,3-dihydrobenzo[b]furan] | 
11 nM | 250 nM | O=C(NCCCCNCC1Cc2ccccc2O1)c1cccc([N+](=O)[O-])c1 (stereo not shown) [Example 15, 2,3-dihydro-2-[N-{4-(3-nitrobenzoylamino)butyl}]aminomethylbenzo[b]furan] | 
1.6 nM |  | Cc1cccc(C(=O)NCCNCC2Cc3ccccc3O2)c1 (stereo not shown) [Example 20, 2-[N-{2-(3-methylbenzoylamino)ethyl}]aminomethyl-2,3-dihydrobenzo[b]furan] | 
11 nM | 760 nM | CN(CCCCNC(=O)c1ccccc1)CC1Cc2ccccc2O1 (stereo not shown) [Example 24, 2-{N-(4-benzoylaminobutyl)-N-methyl}aminomethyl-2,3-dihydrobenzo[b]furan] | 
5.3 nM | 380 nM | O=C(NCCCCNCC1Cc2ccccc2O1)c1cccc(C(F)(F)F)c1 (stereo not shown) [Example 13, 2,3-dihydro-2-[N-{4-(3-trifluoromethylbenzoylamino)butyl}]aminomethylbenzo[b]furan] | 
